The record followed here is patent US6613323B2 (priority 2000, dated 2003).

This assay concerns Magnaporthe grisea. It counts as cell-based.

Consider `OCCCCCCCCCCCCCCCCO` [1,16-hexadecanediol], for which the “effectiveness in inducing appressorium formation compared with cAMP” value (in the presence of recombinant PepEST) is on record as “much more effective than cAMP”. Besides, the “reversal of the inhibition of appressorium formation by the recombinant protein” value (spores treated in the presence of recombinant PepEST, cAMP 10 mM, 1,16-hexadecanediol 0.01 mM) was “reversible”.
